US5621133A (priority 1995, dated 1997)
Where a name gives a salt, the structure may show the parent alone. Read-outs that look alike come from different tables or passages of the source.

Columns and labels:
[1] = test system: striatal dopamine receptors; test: Rotation behavior assay of in vivo activity (6-hydroxydopamine lesioned rat rotational model); settings: for ED50 s.c. (rotation behavior): injected subcutaneously
[2] = target: dopamine D-1 receptor (Rattus norvegicus, UniProt P18901); test: biochemical; settings: D-1 Ki, rat caudate, [125I]SCH-23982
dopamine D-1 receptor (Rattus norvegicus, UniProt P18901), sequence (P18901 whole entry): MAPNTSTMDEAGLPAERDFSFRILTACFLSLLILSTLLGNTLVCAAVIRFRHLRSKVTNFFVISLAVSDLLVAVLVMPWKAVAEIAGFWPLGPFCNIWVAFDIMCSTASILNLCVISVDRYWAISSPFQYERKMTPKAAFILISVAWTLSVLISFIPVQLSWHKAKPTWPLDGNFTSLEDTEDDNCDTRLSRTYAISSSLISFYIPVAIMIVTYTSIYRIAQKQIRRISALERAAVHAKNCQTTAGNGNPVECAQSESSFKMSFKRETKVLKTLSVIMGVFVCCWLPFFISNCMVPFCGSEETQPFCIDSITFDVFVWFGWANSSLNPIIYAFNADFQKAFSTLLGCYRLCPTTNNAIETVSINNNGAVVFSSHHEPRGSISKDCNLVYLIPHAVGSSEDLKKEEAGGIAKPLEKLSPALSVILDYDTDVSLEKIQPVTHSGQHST
From the text: The compounds compete with the radiolabeled ligand for occupancy of the receptors and the molar potency of each compound was quantified.
The Ki values are inversely proportional to the affinity of the compound for the receptor.

[3] = test system: dopamine D-1 receptor; settings: for Intrinsic Activity (adenylate cyclase assay): dopamine = 100, goldfish retina or rat striatum; for EC50: read-out: EC50 (agonist activity in adenylate cyclase assay), tissue from goldfish retina or rat striatum
Method: In order to determine agonist activity, cell-free tissue homogenates are incubated in an ionic buffer solution containing ATP and the compound being evaluated. The tissue was obtained from either goldfish retina or rat striatum.

[4] = target: dopamine D-2 receptor (Rattus norvegicus, UniProt P61169); test: biochemical; type: binding; settings: rat caudate, [125I]-p-aminophenylethyl spiroperidol; read-out: D-2 Ki
dopamine D-2 receptor, sequence (P61169 whole entry): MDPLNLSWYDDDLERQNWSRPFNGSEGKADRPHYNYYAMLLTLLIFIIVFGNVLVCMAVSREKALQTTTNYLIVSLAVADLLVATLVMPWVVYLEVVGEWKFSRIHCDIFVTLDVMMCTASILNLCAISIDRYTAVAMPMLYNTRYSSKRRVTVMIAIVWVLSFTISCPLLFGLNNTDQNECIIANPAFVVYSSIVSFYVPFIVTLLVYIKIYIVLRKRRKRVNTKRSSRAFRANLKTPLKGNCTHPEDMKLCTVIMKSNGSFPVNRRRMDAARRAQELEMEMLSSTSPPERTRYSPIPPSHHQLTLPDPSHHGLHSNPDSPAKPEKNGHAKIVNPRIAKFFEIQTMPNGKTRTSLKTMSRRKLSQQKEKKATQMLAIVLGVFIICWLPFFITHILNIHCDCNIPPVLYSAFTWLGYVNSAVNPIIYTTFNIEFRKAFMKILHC
Method: Homogenized rat caudate was the source of the D-2 receptors. […] The molar affinity of the compound for the receptor binding site was calculated by the same method used for the D-1 receptor assay, assuming a competitive interaction between the compound and the radiolabeled ligand.

Row | Compound | ED50 s.c. (rotation behavior) [1] | Ki [2] | Intrinsic Activity (adenylate cyclase assay) [3] | EC50 [3] | Ki [4] | ED50 oral (rotation behavior) [1] | mean rotations over 20 hours ([1]; dose = 143 micromoles/kg p.o.) | EC50 ([3]; Hydrobromide) | mean rotations over 360 minutes ([1]; dose = 143 micromoles/kg p.o.)
1 | C=CC(C)[C@H]1Cc2c(ccc(O)c2O)[C@@H](CN)O1 (relative stereo) [Example 105] | 0.17 µmol/kg | 0.017 µM | 110 | 0.009 µM | 1 µM | – | – | – | –
2 | CN(C)CC1OC(CC(C)(C)C)Cc2c1ccc(O)c2O (stereo not shown) [Example 220] | 0.52 µmol/kg | 0.41 µM | 72 | 0.4 µM | 3.1 µM | – | – | – | –
3 | CNC[C@@H]1O[C@H](C(C)(C)C)Cc2c1ccc(O)c2O.Cl [Example 112, [1R,3S]3-t-butyl-5,6-dihydroxy-1-methylaminomethyl-3,4-dihydro-1H-2-benzopyran hydrochloride] | 0.10 µmol/kg | 0.038 µM | 124 | 0.008 µM | 1.5 µM | 1.0 µmol/kg | – | – | –
4 | CC1([C@@H]2Cc3c(ccc(O)c3O)[C@H](CN)O2)CCCCC1 (relative stereo) [Example 222] | 0.3 µmol/kg | 0.01 µM | 87 | 0.04 µM | 3.2 µM | – | – | – | –
5 | CC(=O)Oc1ccc2c(c1OC(C)=O)CC(c1ccccc1)C=C2CNC(=O)OC(C)OC(C)=O (stereo not shown) [Example 6] | – | – | – | – | – | – | 2564 | – | –
6 | Br.CN1CCC2=C(C1)c1ccc(O)c(O)c1CC2c1ccccc1 (stereo not shown) [Example 210, 2-Methyl-5-phenyl-1,2,3,4,5,6-hexahydrobenzo[h]isoquinoline-7,8-diol Hydrobromide] | 0.005 µmol/kg | 0.047 µM | 98 | – | 1.3 µM | 1.6 µmol/kg | – | 0.052 µM | –
7 | CC(C)C[C@@H]1Cc2c(ccc(O)c2O)[C@H](CN)O1 (relative stereo) [Example 89] | 0.12 µmol/kg | 0.021 µM | 130 | 0.007 µM | 1.4 µM | 7 µmol/kg | – | – | –
8 | NCC1OC2(CCCCCC2)Cc2c1ccc(O)c2O (stereo not shown) [Example 93] | 0.9 µmol/kg | 0.47 µM | 113 | 0.11 µM | > 10 µM | – | – | – | –
9 | Oc1ccc2c(c1O)CC1(CCCC1)C1=C2CNCC1 [Example 204] | 1.1 µmol/kg | 0.16 µM | 110 | 0.048 µM | 1.5 µM | 18 µmol/kg | – | – | –
10 | CCCCCCCC[C@@H]1Cc2c(ccc(O)c2O)[C@H](CN)O1 (relative stereo) [Example 64] | 58 µmol/kg | 0.64 µM | 80 | 0.39 µM | 0.54 µM | – | – | – | –
11 | NC[C@@H]1O[C@H](CC23CC4CC(CC(C4)C2)C3)Cc2c1ccc(O)c2O (relative stereo) [Example 90] | 0.6 µmol/kg | 0.076 µM | 128 | 0.022 µM | 0.9 µM | 8 µmol/kg | – | – | –
12 | CC(=O)Oc1ccc2c(c1OC(C)=O)CC(c1ccccc1)C=C2CNC(=O)[C@H](C)NC(=O)[C@H](C)N (stereo partly shown) [Example 4, 5,6-Bis(acetoxy)-1-(alanyl-alanyl)aminomethyl-3-phenyl-3,4-dihydronaphthalene Hydrochloride] | – | – | – | – | – | – | – | – | 3329
13 | CNC[C@@H]1O[C@H](CC23CC4CC(CC(C4)C2)C3)Cc2c1ccc(O)c2O (relative stereo) [Example 139] | 0.4 µmol/kg | 0.45 µM | 129 | 0.0097 µM | 3.2 µM | 23 µmol/kg | – | – | –
14 | CC(=O)Oc1ccc2c(c1OC(C)=O)CC(c1ccccc1)C=C2CNC(=O)[C@H](C)N (stereo partly shown) [Example 10] | – | – | – | – | – | – | – | – | 1516
15 | Oc1ccc2c(c1O)CC1(CCCCCCCC1)C1=C2CNCC1 [Example 241] | > 3 µmol/kg | 0.4 µM | 48 | 0.4 µM | 2.9 µM | – | – | – | –
16 | CC(C)CC1Cc2c(ccc(O)c2O)C(CN)O1 (stereo not shown) [Example 216] | 0.07 µmol/kg | 0.003 µM | 114 | 0.005 µM | 3.7 µM | – | – | – | –
17 | CC(C)(C)C[C@H]1Cc2c(ccc(O)c2O)[C@@H](CN)O1 (relative stereo) [Example 104] | 0.13 µmol/kg | 0.037 µM | 110 | 0.054 µM | > 10 µM | 5 µmol/kg | – | – | –
18 | Cl.NCC1=CC(c2ccccc2)Cc2c1ccc(OC(=O)c1ccccc1)c2OC(=O)c1ccccc1 (stereo not shown) [Example 16, 1-Aminomethyl-5,6-bis(benzoyloxy)-3-phenyl-3,4-dihydronaphthalene Hydrochloride] | – | – | – | – | – | – | – | – | 4844
19 | CN(C)C[C@@H]1O[C@H](C(C)(C)C)Cc2c1ccc(O)c2O [Example 147] | 0.05 µmol/kg | 0.4 µM | 89 | 0.066 µM | > 10 µM | – | – | – | –

Row | Compound | ED50 s.c. (rotation behavior) [1] | Ki [2] | Intrinsic Activity (adenylate cyclase assay) [3] | EC50 [3] | Ki [4] | ED50 oral (rotation behavior) [1] | mean rotations over 20 hours ([1]; dose = 143 micromoles/kg p.o.) | EC50 ([3]; Hydrobromide) | mean rotations over 360 minutes ([1]; dose = 143 micromoles/kg p.o.)
20 | CN(C)C[C@@H]1O[C@H](C2CCCCC2)Cc2c1ccc(O)c2O (relative stereo) [Example 228] | 0.1 µmol/kg | 0.03 µM | 71 | 0.28 µM | > 10 µM | – | – | – | –
21 | CC(C)(C)CC1Cc2c(ccc(O)c2O)C(CN)O1.Cl (stereo not shown) [Example 214, 1-Aminomethyl-3-(2,2-dimethylpropyl)-3,4-dihydro-5,6-dihydroxy-1H-2-benzopyran Hydrochloride] | 0.085 µmol/kg | 0.02 µM | 106 | 0.02 µM | 5.2 µM | – | – | – | –
22 | CN1CCC2=C(C1)c1ccc(O)c(O)c1CC21CCCCCCC1 [Example 250] | 0.51 µmol/kg | 0.15 µM | – | – | 1.6 µM | – | – | – | –
23 | C[C@H](N)C(=O)N[C@@H](C)C(=O)NCC1=CC(c2ccccc2)Cc2c1ccc(OC(=O)c1ccccc1)c2OC(=O)c1ccccc1 (stereo partly shown) [Example 15] | – | – | – | – | – | – | – | – | 1760
24 | CN1CCC2=C(C1)c1ccc(O)c(O)c1CC2C(C)(C)C (stereo not shown) [Example 244] | > 3 µmol/kg | 0.24 µM | – | – | 1.2 µM | – | – | – | –
25 | CN1CCC2=C(C1)c1ccc(O)c(O)c1CC21CCCCCC1 [Example 249] | 0.12 µmol/kg | 0.05 µM | 32 | 0.2 µM | 0.6 µM | – | – | – | –
26 | CNC[C@H]1O[C@@H](CC(C)(C)C)Cc2c1ccc(O)c2O (relative stereo) [Example 146] | 0.12 µmol/kg | 0.049 µM | 82 | 0.12 µM | 1.4 µM | 7 µmol/kg | – | – | –
27 | CSCC[C@H](N)C(=O)NCC1=CC(c2ccccc2)Cc2c1ccc(OC(C)=O)c2OC(C)=O (stereo partly shown) [Example 14] | – | – | – | – | – | – | – | – | 3653
28 | CNCC1OC(CC(C)C)Cc2c1ccc(O)c2O (stereo not shown) [Example 219] | 0.09 µmol/kg | 4 µM | – | – | 1.6 µM | – | – | – | –
29 | CNC[C@H]1O[C@@H](CCO)Cc2c1ccc(O)c2O (relative stereo) [Example 174] | – | 1.2 µM | 90 | 0.065 µM | 3.5 µM | – | – | – | –
30 | Oc1ccc2c(c1O)C[C@@H](c1ccccc1)O[C@H]2[C@H]1CCCN1 [Example 123] | – | 8.2 µM | 61 | 0.77 µM | > 10 µM | – | – | – | –
31 | CNC[C@@H]1S[C@H](c2ccccc2)Cc2c1ccc(O)c2O (relative stereo) [Example 187, [1,3-cis]1-(N-Methyl)aminomethyl-3-phenyl-3,4-dihydro-5,6-dihydroxy-1H-2-benzothiopyran Hydrochloride] | – | 2.5 µM | 70 | 1.2 µM | 6.4 µM | – | – | – | –
32 | NC[C@H]1O[C@@H](CNC(=O)c2ccccc2)Cc2c1ccc(O)c2O (relative stereo) [Example 164] | – | 3.6 µM | 96 | 0.2 µM | 0.25 µM | – | – | – | –
33 | Cl.NCc1cc(-c2ccccc2)cc2c(O)c(O)ccc12 [Example 46, 1-Aminomethyl-5,6-dihydroxy-3-phenylnaphthalene Hydrochloride] | – | 1.7 µM | 69 | 0.22 µM | > 10 µM | – | – | – | –
34 | NC[C@H]1O[C@@H](CN2CCCCC2)Cc2c1ccc(O)c2O (relative stereo) [Example 158] | – | 2.3 µM | 100 | 0.33 µM | 6 µM | – | – | – | –
35 | CNCC1=CC(c2ccccc2)Cc2c1ccc(O)c2O (stereo not shown) [Example 149, 5,6-Dihydroxy-1-(N-methyl)aminomethyl-3-phenyl-3,4,-dihydronaphthalene] | – | 0.46 µM | 78 | 0.036 µM | 19 µM | – | – | – | –
36 | CC(C)(C)C1C=C(CN)c2ccc(O)c(O)c2C1 (stereo not shown) [Example 190] | – | 0.33 µM | 92 | 0.11 µM | 6.3 µM | – | – | – | –
37 | CC(C)C(=O)Oc1ccc2c(c1OC(=O)C(C)C)CC(c1ccccc1)C=C2CN (stereo not shown) [Example 18] | – | 1.3 µM | 46 | 1.5 µM | > 10 µM | – | – | – | –
